pEC50, pIC50: −log10 of the molar value. “Also recorded” adds a separate entry of the source.
What was measured:
[1] = Pharmacokinetics, oral bioavailability in dogs; format: in vivo; details: dog, plasma
Protocol: (§1) Pharmacokinetic studies following single-dose and repeat dose administration were performed in mice, rats, dogs, humans and monkeys. Tenalisib plasma concentrations were determined by a validated LC-MS/MS method. The pharmacokinetic profile of tenalisib was evaluated following both oral and intravenous administration. […] In an in vitro study using liver microsomes, the metabolic stability followed a rank order of rat>human>dog>monkey>mouse.

PI3Kγ [2] = target: T1, PI3Kγ (Mus musculus, UniProt Q9JHG7); assay: PI3K isoform cell-based assay: c5a induced pAKT in RAW macrophages
T1 construct: endogenous in cells; host or cells: RAW macrophages (c5a induced pAKT)

[3] = Metabolic stability in liver microsomes, monkey; format: in vitro ADME
Excerpt: (§2) In in vitro studies using liver microsomes, the metabolic stability of tenalisib followed the rank order of rat>human>dog>monkey>mouse (Table 3).

PI3Kδ [4] = target: T2, PI3Kδ (Homo sapiens, UniProt O00329); assay: anti-FcεR1 induced CD63 expression in human whole blood; format: cell-based; parameters: endogenous in cells; host or cells: human whole blood (anti-FcεR1 induced CD63); details: whole blood from healthy human subjects; flow cytometry; read-out: EC50 of anti-FcεR1 (PI3Kδ) mediated CD63 expression
[5] = system: locally advanced or metastatic breast cancer; assay: Phase II randomized open label study in breast cancer patients; format: in vivo, human
Protocol: This is a Phase II, randomized, open label study, designed to evaluate the preliminary efficacy and safety of tenalisib (Compound A) at two dose levels (800 mg BID and 1200 mg BID) in 40 patients with locally advanced or metastatic breast cancer. 20 patients will be enrolled in each of Group 1 (tenalisib 800 mg BID) and Group 2 (tenalisib 1200 mg BID). Both groups will be run in parallel.
• 1. Provision of full informed consent prior to any study-specific procedures. • 2. Patients must be ≥18 years of age, at the time of signing informed consent. • 3. Female patients who have histologically and/or cytologically confirmed locally advanced or metastatic breast cancer that has progressed following at least one line of therapy. • 4. Patients with at least one measurable lesion per RECIST version 1.1 at baseline that can be accurately assessed by CT scan or MRI and is suitable for repeated assessment at follow up-visits. • 5. ECOG performance status 0 to 2. • 6. Life expectancy of at least 3 months. • 7. […] Female patient of childbearing potential should be willing to use a medically acceptable method of contraception as defined in Appendix B while participating in the study and for 30 days after the last dose of study drug AND must have a negative serum pregnancy test within 3 days prior to Cycle 1 Day 1 (C1D1). • 9. Ability to swallow and retain oral medication. • 10. Willingness and capability to comply with the study requirements.

PI3Kα = target: T3, PI3Kα (Mus musculus, UniProt P42337); assay: PI3K isoform cell-based assay: PI3K α-mediated phosphorylation of AKT in 3T3 fibroblasts; details: pAKT by PDGF or lysophosphatidic acid in 3T3 fibroblasts
T3 construct: endogenous in cells; host or cells: 3T3 fibroblasts (pAKT)

PI3Kδ [6] = target: T2, PI3Kδ; assay: PI3K isoform enzyme assay (HTRF), PI3Kδ; format: biochemical
plasma proteins [7] = assay: In vitro protein binding, rat plasma; format: in vitro ADME
Protocol: (§3) In vitro protein binding studies were performed using rat, dog, monkey and human plasma. Binding of tenalisib to plasma proteins was >96% across all species.

[8] = In vitro plasma stability, rat plasma; format: in vitro ADME; details: LC-MS/MS
Protocol: (§4) In vitro plasma stability studies were performed using rat, dog, monkey and human plasma. The concentration of tenalisib was measured by LC-MS/MS.

[9] = Metabolic stability in liver microsomes, mouse; format: in vitro ADME
Excerpt: as §2

plasma proteins [10] = assay: In vitro protein binding, monkey plasma; format: in vitro ADME
Protocol: as §3

[11] = Pharmacokinetics, oral bioavailability in rats; format: in vivo; details: rat, plasma
Protocol: as §1

[12] = In vitro plasma stability, dog plasma; format: in vitro ADME; details: LC-MS/MS
Protocol: as §4

[13] = In vitro plasma stability, monkey plasma; format: in vitro ADME; details: LC-MS/MS
Protocol: as §4

plasma proteins [14] = assay: In vitro protein binding, dog plasma; format: in vitro ADME
Protocol: as §3

plasma proteins [15] = assay: In vitro protein binding, human plasma; format: in vitro ADME
Protocol: as §3

[16] = In vitro plasma stability, human plasma; format: in vitro ADME; details: LC-MS/MS
Protocol: as §4

PI3Kγ [17] = target: PI3Kγ (Homo sapiens, UniProt P48736); assay: PI3K isoform enzyme assay (HTRF), PI3Kγ; format: biochemical; details: 100 μM ATP
[18] = Metabolic stability in liver microsomes, dog; format: in vitro ADME
Excerpt: as §2

PI3Kβ = target: T4, PI3Kβ (Mus musculus, UniProt Q8BTI9); assay: PI3K isoform cell-based assay: PI3K β-mediated phosphorylation of AKT in 3T3 fibroblasts; details: pAKT by PDGF or lysophosphatidic acid in 3T3 fibroblasts
T4 construct: endogenous in cells; host or cells: 3T3 fibroblasts (pAKT)

[19] = Metabolic stability in liver microsomes, human; format: in vitro ADME
Excerpt: as §2

T2 sequence (O00329 whole entry): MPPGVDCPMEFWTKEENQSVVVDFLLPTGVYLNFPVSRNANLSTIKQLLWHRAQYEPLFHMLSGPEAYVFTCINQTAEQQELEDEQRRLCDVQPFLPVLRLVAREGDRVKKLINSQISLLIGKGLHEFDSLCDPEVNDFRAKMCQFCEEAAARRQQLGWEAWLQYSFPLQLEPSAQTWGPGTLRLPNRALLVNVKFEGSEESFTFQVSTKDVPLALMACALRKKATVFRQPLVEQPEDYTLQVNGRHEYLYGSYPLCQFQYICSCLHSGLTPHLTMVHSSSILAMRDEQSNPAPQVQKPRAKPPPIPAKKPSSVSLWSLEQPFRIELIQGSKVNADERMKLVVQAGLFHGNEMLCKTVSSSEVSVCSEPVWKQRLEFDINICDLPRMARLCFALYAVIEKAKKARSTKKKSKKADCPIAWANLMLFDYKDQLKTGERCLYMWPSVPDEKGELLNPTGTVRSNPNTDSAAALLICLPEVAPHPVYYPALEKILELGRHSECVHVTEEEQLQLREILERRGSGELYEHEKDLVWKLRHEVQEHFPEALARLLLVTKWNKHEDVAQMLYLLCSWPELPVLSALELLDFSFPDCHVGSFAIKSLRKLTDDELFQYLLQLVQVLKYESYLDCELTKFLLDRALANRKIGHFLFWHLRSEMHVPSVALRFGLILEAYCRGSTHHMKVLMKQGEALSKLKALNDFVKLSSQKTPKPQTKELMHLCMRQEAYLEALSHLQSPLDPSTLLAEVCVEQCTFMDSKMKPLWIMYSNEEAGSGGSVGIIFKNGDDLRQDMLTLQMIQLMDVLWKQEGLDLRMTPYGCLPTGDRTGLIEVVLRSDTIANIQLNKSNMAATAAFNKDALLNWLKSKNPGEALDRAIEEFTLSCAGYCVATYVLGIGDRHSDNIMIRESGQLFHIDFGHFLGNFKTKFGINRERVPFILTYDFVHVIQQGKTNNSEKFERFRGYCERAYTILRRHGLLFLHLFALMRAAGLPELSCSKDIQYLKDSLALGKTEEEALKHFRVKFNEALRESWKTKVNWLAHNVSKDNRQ
T2 sequence (P27986 whole entry partner): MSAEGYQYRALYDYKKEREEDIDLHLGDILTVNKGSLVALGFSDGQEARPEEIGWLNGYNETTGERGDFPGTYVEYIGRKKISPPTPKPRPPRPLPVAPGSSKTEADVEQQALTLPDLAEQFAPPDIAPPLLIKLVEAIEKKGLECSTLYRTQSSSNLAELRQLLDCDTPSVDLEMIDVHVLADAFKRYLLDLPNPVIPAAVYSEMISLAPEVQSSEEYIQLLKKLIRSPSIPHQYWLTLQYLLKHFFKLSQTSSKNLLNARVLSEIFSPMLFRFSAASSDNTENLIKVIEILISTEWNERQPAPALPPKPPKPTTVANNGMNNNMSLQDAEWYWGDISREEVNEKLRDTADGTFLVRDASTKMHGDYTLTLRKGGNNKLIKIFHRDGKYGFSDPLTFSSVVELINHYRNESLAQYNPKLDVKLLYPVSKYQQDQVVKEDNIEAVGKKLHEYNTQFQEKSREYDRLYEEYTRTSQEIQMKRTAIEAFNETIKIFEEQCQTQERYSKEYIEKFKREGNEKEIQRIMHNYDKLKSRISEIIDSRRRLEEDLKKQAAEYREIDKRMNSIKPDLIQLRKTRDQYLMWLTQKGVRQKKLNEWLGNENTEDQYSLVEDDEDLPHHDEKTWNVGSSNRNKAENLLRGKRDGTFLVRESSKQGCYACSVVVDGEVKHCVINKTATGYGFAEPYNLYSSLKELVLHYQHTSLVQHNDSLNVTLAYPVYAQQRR
T1 sequence (Q9JHG7 whole entry, canonical isoform): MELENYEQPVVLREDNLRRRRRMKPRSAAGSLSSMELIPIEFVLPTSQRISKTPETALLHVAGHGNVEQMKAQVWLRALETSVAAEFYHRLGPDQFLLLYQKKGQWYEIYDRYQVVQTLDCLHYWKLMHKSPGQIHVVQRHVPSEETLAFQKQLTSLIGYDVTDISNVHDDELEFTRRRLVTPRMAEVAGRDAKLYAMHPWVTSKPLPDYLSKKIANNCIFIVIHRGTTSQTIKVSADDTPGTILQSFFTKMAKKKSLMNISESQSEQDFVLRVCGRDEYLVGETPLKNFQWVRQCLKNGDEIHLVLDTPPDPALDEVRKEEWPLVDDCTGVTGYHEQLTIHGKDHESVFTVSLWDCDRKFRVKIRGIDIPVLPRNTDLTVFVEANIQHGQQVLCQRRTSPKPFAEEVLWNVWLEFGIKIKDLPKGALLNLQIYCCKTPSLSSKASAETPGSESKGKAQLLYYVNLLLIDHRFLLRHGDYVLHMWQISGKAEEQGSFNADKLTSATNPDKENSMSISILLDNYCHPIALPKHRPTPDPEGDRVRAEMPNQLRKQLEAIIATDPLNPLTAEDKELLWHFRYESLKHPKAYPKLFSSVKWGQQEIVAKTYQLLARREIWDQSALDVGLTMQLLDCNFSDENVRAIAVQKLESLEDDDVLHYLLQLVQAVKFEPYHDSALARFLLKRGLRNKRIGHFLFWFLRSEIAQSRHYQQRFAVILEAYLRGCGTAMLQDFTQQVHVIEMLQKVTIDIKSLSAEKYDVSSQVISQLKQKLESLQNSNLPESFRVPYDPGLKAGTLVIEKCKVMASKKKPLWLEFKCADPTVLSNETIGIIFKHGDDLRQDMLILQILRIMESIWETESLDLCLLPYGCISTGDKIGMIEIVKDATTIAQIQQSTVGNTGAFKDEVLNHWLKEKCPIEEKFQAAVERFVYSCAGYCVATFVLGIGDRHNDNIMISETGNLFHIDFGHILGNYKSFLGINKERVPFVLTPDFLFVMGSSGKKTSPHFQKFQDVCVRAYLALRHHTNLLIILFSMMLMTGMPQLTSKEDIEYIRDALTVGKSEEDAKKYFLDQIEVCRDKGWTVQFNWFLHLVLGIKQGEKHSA
T3 sequence (P42337 whole entry, canonical isoform): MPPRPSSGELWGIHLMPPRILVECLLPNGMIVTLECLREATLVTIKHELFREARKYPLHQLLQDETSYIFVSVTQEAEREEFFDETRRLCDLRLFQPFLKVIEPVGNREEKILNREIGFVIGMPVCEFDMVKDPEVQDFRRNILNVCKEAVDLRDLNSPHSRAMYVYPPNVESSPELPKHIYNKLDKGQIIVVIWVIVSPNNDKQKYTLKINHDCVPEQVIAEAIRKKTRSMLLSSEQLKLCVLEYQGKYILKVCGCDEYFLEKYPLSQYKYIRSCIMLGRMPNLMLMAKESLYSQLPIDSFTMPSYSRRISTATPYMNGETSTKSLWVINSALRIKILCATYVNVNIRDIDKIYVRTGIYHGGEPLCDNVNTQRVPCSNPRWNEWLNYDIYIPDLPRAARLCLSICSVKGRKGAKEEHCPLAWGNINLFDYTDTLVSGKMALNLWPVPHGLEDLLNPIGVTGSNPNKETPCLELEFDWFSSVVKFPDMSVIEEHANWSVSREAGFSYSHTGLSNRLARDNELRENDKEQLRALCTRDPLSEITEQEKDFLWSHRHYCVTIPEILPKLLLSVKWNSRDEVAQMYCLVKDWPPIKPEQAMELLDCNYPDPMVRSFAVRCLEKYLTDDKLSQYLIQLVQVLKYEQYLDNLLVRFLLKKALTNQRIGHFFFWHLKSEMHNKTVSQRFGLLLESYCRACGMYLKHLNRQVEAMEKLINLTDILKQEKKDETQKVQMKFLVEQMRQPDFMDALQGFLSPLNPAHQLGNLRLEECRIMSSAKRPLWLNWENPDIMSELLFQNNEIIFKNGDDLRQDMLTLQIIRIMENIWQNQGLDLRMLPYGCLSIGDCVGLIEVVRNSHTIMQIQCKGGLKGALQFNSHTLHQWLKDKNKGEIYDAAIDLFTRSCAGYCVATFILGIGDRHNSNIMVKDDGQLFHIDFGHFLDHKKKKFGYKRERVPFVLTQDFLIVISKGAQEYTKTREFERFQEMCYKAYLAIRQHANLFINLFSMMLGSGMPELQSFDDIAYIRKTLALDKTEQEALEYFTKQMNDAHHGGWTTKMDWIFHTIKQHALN
T3 sequence (P26450 whole entry partner, canonical isoform): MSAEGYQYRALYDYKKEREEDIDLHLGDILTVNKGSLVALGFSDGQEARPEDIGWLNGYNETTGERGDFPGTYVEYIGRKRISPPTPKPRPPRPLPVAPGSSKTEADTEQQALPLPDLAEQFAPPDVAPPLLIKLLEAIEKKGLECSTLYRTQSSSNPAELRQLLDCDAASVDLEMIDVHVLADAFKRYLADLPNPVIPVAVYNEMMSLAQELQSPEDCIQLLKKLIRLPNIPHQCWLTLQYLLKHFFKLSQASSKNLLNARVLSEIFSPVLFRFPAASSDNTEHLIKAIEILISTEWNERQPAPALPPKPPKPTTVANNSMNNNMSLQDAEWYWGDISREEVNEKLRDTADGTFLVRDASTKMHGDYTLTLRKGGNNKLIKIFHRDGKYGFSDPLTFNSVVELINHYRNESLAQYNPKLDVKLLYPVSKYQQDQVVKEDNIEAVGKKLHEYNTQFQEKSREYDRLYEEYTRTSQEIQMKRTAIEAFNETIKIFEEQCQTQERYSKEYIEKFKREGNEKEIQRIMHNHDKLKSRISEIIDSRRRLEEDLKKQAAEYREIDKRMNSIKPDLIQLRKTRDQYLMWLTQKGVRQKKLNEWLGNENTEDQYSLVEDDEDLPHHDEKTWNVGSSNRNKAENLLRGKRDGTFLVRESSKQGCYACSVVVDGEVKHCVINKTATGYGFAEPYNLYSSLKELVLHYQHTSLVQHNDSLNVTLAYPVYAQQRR

## CC[C@H](Nc1ncnc2[nH]cnc12)c1oc2ccccc2c(=O)c1-c1cccc(F)c1 [Compound A, (S)-2-(1-(9H-purin-6-ylamino)propyl)-3-(3-fluorophenyl)-4H-chromen-4-one]
[1]
  bioavailability: > 100%
PI3Kγ [2]
  pEC50: 7.65
[3]
  % Metabolic Stability: 29.6%
PI3Kδ [4]
  pEC50: 7.41
[5]; 800 mg BID (N = 20)
  Clinical Benefit Rate, % (CBR = PR + CR + SD ≥24 weeks): (55) %
  Clinical Benefit Rate, n (CBR = PR + CR + SD ≥24 weeks): 11
  Disease Control rate (DCR), %: (65) %
  Duration of Clinical Benefit, median: 9.36
  Duration of Response (DOR) in ORR patients, median: 7.53
  Duration of Treatment (DOT), median: 5.55
  Objective Response rate (ORR), %: (10) %
  Partial Response, %: (10) %
  Progressive disease, %: (25) %
  Stable disease, %: (55) %
[5]; 1200 mg BID (N = 20)
  Clinical Benefit Rate, % (CBR = PR + CR + SD ≥24 weeks): (60) %
  Clinical Benefit Rate, n (CBR = PR + CR + SD ≥24 weeks): 12
  Disease Control rate (DCR), %: (70) %
  Duration of Clinical Benefit, median: 7.46
  Duration of Response (DOR) in ORR patients, median: 9.36
  Duration of Treatment (DOT), median: 5.63
  Objective Response rate (ORR), %: (15) %
  Partial Response, %: (15) %
  Progressive disease, %: (20) %
  Stable disease, %: (55) %
[5]; All (N = 40)
  Clinical Benefit Rate, % (CBR = PR + CR + SD ≥24 weeks): (57.5) %
  Clinical Benefit Rate, n (CBR = PR + CR + SD ≥24 weeks): 23
  Disease Control rate (DCR), %: (67.5) %
  Duration of Clinical Benefit, median: 7.46
  Duration of Response (DOR) in ORR patients, median: 9.36
  Duration of Treatment (DOT), median: 5.60
  Objective Response rate (ORR), %: (12.5) %
  Partial Response, %: (12.5) %
  Progressive disease, %: (22.5) %
  Stable disease, %: (55) %
PI3Kα
  pEC50: < 5.00
PI3Kδ [6]; HTRF, 100 μM ATP
  pIC50: 7.61
PI3Kδ [6]; PI3K δ/γ versus PI3K α and β, listed as compound of formula (A)
  selectivity over the α and β isoforms (enzyme assay): several fold selectivity; also recorded: selective
Plasma proteins [7]
  Binding to plasma proteins: > 96%
[8]
  plasma stability: stable
[9]
  % Metabolic Stability: 26.0%
Plasma proteins [10]
  Binding to plasma proteins: > 96%
[11]
  bioavailability: > 72.4%
[12]
  plasma stability: stable
[13]
  plasma stability: stable
Plasma proteins [14]
  Binding to plasma proteins: > 96%
Plasma proteins [15]
  Binding to plasma proteins: > 96%
[16]
  plasma stability: stable
PI3Kγ [17]
  pIC50: 7.48
[18]
  % Metabolic Stability: 52.2%
PI3Kβ
  pEC50: 5.68
[19]
  % Metabolic Stability: 73.9%

— patent US20250241923A1, “A DUAL SELECTIVE PI3K DELTA AND GAMMA INHIBITORS AND/OR A SALT-INDUCIBLE KINASE 3 INHIBITOR FOR TREATING SOLID TUMORS” (Incozen Therapeutics Pvt. Ltd, priority 2022, published 2025)
